Results reported in US7414072B2, “Aryl 5-thio-β-d-glucopyranoside derivatives and therapeutic agents for diabetes containing the same” (Taisho Pharmaceutical Co., Ltd., priority 2002, dated 2008).
“And” between values parts separate entries of the source, which are not always exact repeats. Equal entries are not always repeated.

| Compound | melting point |
| --- | --- |
| O=C(Nc1ccccc1)c1cc(Cl)ccc1O[C@@H]1S[C@H](CO)[C@@H](O)[C@H](O)[C@H]1O [Compound 27] | 96 to 105 °C |
| OC[C@H]1S[C@@H](Oc2ccccc2OCc2ccccc2)[C@H](O)[C@@H](O)[C@@H]1O [Compound 25] | 148 to 150 °C |
| CCc1ccc(Cc2ccccc2O[C@@H]2S[C@H](CO)[C@@H](O)[C@H](O)[C@H]2O)cc1 [Compound 1, 2′-(4′-ethylbenzyl)phenyl 5-thio-β-D-glucopyranoside] | 154 to 160 °C and 154 to 169 °C and 156.5 to 157.5 °C |
| CCc1ccc(Cc2cc(C(=O)OC)ccc2O[C@@H]2S[C@H](CO)[C@@H](O)[C@H](O)[C@H]2O)cc1 [Compound 15, 2′-(4′-ethylbenzyl)-4′-methoxycarbonylphenyl 5-thio-β-D-glucopyranoside] | 196 to 198 °C |
| Cc1ccc(Cc2ccccc2O[C@@H]2S[C@H](CO)[C@@H](O)[C@H](O)[C@H]2O)cc1 [Compound 3, 2′-(4′-methylbenzyl)phenyl 5-thio-β-D-glucopyranoside] | 184 to 186 °C |
| CCc1ccc(Cc2cc(C(=O)O)ccc2O[C@@H]2S[C@H](CO)[C@@H](O)[C@H](O)[C@H]2O)cc1 [Compound 16, 4′-carboxy-2′-(4′-ethylbenzyl)phenyl 5-thio-β-D-glucopyranoside] | 219 to 220.5 °C |
| CCc1ccc(Cc2ccc(O)cc2O[C@@H]2S[C@H](CO)[C@@H](O)[C@H](O)[C@H]2O)cc1 [Compound 21, 2′-(4′-ethylbenzyl)-5′-hydroxyphenyl 5-thio-β-D-glucopyranoside] | 172 to 173.5 °C |
| CCOc1ccc(Cc2ccccc2O[C@@H]2S[C@H](CO)[C@@H](O)[C@H](O)[C@H]2O)cc1 [Compound 5, 2′-(4′-ethoxybenzyl)phenyl 5-thio-β-D-glucopyranoside] | 182 to 183.5 °C |
| CCc1ccc(Cc2ccccc2O[C@@H]2S[C@H](COC(=O)OC)[C@@H](O)[C@H](O)[C@H]2O)cc1 [Compound 23, 2′-(4′-ethylbenzyl)phenyl 6-O-methoxycarbonyl 5-thio-β-D-glucopyranoside] | 102 to 104.5 °C |
| CCc1ccc(Cc2cc(Cl)ccc2O[C@@H]2S[C@H](CO)[C@@H](O)[C@H](O)[C@H]2O)cc1 [Compound 2, 4′-chloro-2′-(4′-ethylbenzyl)phenyl 5-thio-β-D-glucopyranoside] | 173.5 to 177.5 °C |
| OC[C@H]1S[C@@H](Oc2ccccc2Cc2ccncc2)[C@H](O)[C@@H](O)[C@@H]1O [Compound 24] | 179 to 180 °C |
| CCc1ccc(Cc2cc(CO)ccc2O[C@@H]2S[C@H](CO)[C@@H](O)[C@H](O)[C@H]2O)cc1 [Compound 13, 2′-(4′-ethylbenzyl)-4′-(hydroxymethyl)phenyl 5-thio-β-D-glucopyranoside] | 202.5 to 205 °C |
| OC[C@H]1S[C@@H](Nc2ccccc2Cc2ccccc2)[C@H](O)[C@@H](O)[C@@H]1O [Compound 35] | 144 to 151 °C |

Next, values leading:

| melting point | Compound |
| --- | --- |
| 183.5 to 185 °C | OC[C@H]1S[C@@H](Oc2ccc(Cl)cc2Cc2c(F)cccc2Cl)[C@H](O)[C@@H](O)[C@@H]1O [Compound 59, 2′-(2′-chloro-6′-fluorobenzyl)-4′-chlorophenyl 5-thio-β-D-glucopyranoside] |
| 215.5 to 216 °C | NC(=O)c1ccc(Cc2ccccc2O[C@@H]2S[C@H](CO)[C@@H](O)[C@H](O)[C@H]2O)cc1 [Compound 85, 2′-(4′-carbamoylbenzyl)phenyl 5-thio-β-D-glucopyranoside] |
| 183 to 184 °C | CN(C)c1ccc(Cc2cc(Cl)ccc2O[C@@H]2S[C@H](CO)[C@@H](O)[C@H](O)[C@H]2O)cc1 [Compound 52, 4′-chloro-2′-(4′-N,N-dimethylaminobenzyl)phenyl 5-thio-β-D-glucopyranoside] |
| 175 to 177.5 °C | CCn1cc(Cc2ccccc2O[C@@H]2S[C@H](CO)[C@@H](O)[C@H](O)[C@H]2O)cn1 [Compound 54] |
| 74 to 76 °C | COC(=O)c1ccc(Cc2cc(Cl)ccc2O[C@@H]2S[C@H](CO)[C@@H](O)[C@H](O)[C@H]2O)cc1 [Compound 40, 4′-chloro-2′-(4′-methoxycarbonylbenzyl)phenyl 5-thio-β-D-glucopyranoside] |
| 204 to 211 °C | OC[C@H]1S[C@@H](Oc2ccc(Cl)cc2Cc2c(F)c(F)cc(F)c2F)[C@H](O)[C@@H](O)[C@@H]1O [Compound 66, 4′-chloro-2′-(2′,3′,5′,6′-tetrafluorobenzyl)phenyl 5-thio-β-D-glucopyranoside] |
| 79 to 82.5 °C | CC(C)(C)c1ccc(Cc2cc(Cl)ccc2O[C@@H]2S[C@H](CO)[C@@H](O)[C@H](O)[C@H]2O)cc1 [Compound 75, 2′-(4′-t-butylbenzyl)-4′-chlorophenyl 5-thio-β-D-glucopyranoside] |
| 165 to 168 °C | CCCCc1ccc(Cc2cc(Cl)ccc2O[C@@H]2S[C@H](CO)[C@@H](O)[C@H](O)[C@H]2O)cc1 [Compound 46, 2′-(4′-butylbenzyl)-4′-chlorophenyl 5-thio-β-D-glucopyranoside] |
| 182 to 183 °C | OC[C@H]1S[C@@H](Oc2ccc(Cl)cc2Cc2cccc(F)c2)[C@H](O)[C@@H](O)[C@@H]1O [Compound 61, 4′-chloro-2′-(3′-fluorobenzyl)phenyl 5-thio-β-D-glucopyranoside] |
| 140 to 142 °C | Cc1ccc(Sc2ccccc2O[C@@H]2S[C@H](CO)[C@@H](O)[C@H](O)[C@H]2O)cc1 [Compound 38] |
| 196.5 to 198.5 °C | CCOc1ccccc1Cc1cc(Cl)ccc1O[C@@H]1S[C@H](CO)[C@@H](O)[C@H](O)[C@H]1O [Compound 81, 4′-chloro-2′-(2′-ethoxybenzyl)phenyl 5-thio-β-D-glucopyranoside] |
| 200 to 202 °C | O=C(Nc1ccccc1)c1cc2ccccc2cc1O[C@@H]1S[C@H](CO)[C@@H](O)[C@H](O)[C@H]1O [Compound 92] |
| 144 to 145 °C | CCc1cccc(Cc2ccccc2O[C@@H]2S[C@H](CO)[C@@H](O)[C@H](O)[C@H]2O)c1 [Compound 57] |
| 180 to 182 °C | O=[N+]([O-])c1ccc(Cc2cc(Cl)ccc2O[C@@H]2S[C@H](CO)[C@@H](O)[C@H](O)[C@H]2O)cc1 [Compound 41, 4′-chloro-2′-(4′-nitrobenzyl)phenyl 5-thio-β-D-glucopyranoside] |
| 187 to 195 °C | OC[C@H]1S[C@@H](Oc2ccc(Cl)cc2Cc2ccc(-c3ccccc3)cc2)[C@H](O)[C@@H](O)[C@@H]1O [Compound 67, 4′-chloro-2′-(4′-phenylbenzyl)phenyl 5-thio-β-D-glucopyranoside] |
| 146 to 148.5 °C | CC(C)c1ccc(Cc2cc(Cl)ccc2O[C@@H]2S[C@H](CO)[C@@H](O)[C@H](O)[C@H]2O)cc1 [Compound 63, 4′-chloro-2′-(4′-isopropylbenzyl)phenyl 5-thio-β-D-glucopyranoside] |
| 174 to 176.5 °C | OC[C@H]1S[C@@H](Oc2ccccc2Cc2ccc(N3CCOCC3)cc2)[C@H](O)[C@@H](O)[C@@H]1O [Compound 73, 2′-(4′-morpholinobenzyl)phenyl 5-thio-β-D-glucopyranoside] |
| 206 to 211 °C | CCc1ccc(Cc2ccc(CO)cc2O[C@@H]2S[C@H](CO)[C@@H](O)[C@H](O)[C@H]2O)cc1 [Compound 39, 2′-(4′-ethylbenzyl)-5′-(hydroxymethyl)phenyl 5-thio-β-D-glucopyranoside] |
